From PubChem BioAssay (NCI)
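Compound exposure: 48 hours, 5 concentrations, 96-well plates. At the GI50, growth is halved. Definition used: TGI = concentration required for complete inhibition of growth.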

What was measured:
Test in all cases: DTP human tumour cell line panel, 48 h
HS 578T breast = tested on: HS 578T breast
KM12 colon = tested on: KM12 colon
NCI-H226 lung = tested on: NCI-H226 lung
NCI-H23 lung = tested on: NCI-H23 lung
DU-145 prostate = tested on: DU-145 prostate
SNB-19 CNS = tested on: SNB-19 CNS
MCF7 breast = tested on: MCF7 breast
RPMI-8226 leukemia = tested on: RPMI-8226 leukemia
HCT-15 colon = tested on: HCT-15 colon
HOP-62 NSCLC = tested on: HOP-62 NSCLC
OVCAR-4 ovarian = tested on: OVCAR-4 ovarian
SF-539 CNS = tested on: SF-539 CNS
SNB-75 CNS = tested on: SNB-75 CNS
OVCAR-8 ovarian = tested on: OVCAR-8 ovarian
MDA-MB-231 breast = tested on: MDA-MB-231 breast
786-0 renal = tested on: 786-0 renal
NCI/ADR-RES ovarian = tested on: NCI/ADR-RES ovarian
NCI-H460 lung = tested on: NCI-H460 lung
MALME-3M melanoma = tested on: MALME-3M melanoma
SK-MEL-28 melanoma = tested on: SK-MEL-28 melanoma
PC-3 prostate = tested on: PC-3 prostate
HT29 colon = tested on: HT29 colon
COLO 205 colon = tested on: COLO 205 colon
OVCAR-3 ovarian = tested on: OVCAR-3 ovarian
NCI-H522 lung = tested on: NCI-H522 lung
LOX IMVI melanoma = tested on: LOX IMVI melanoma
SR leukemia = tested on: SR leukemia
A498 renal = tested on: A498 renal
EKVX NSCLC = tested on: EKVX NSCLC
K-562 leukemia = tested on: K-562 leukemia
UACC-62 melanoma = tested on: UACC-62 melanoma
U251 CNS = tested on: U251 CNS
OVCAR-5 ovarian = tested on: OVCAR-5 ovarian
CCRF-CEM leukemia = tested on: CCRF-CEM leukemia
HCT-116 colon = tested on: HCT-116 colon
MOLT-4 leukemia = tested on: MOLT-4 leukemia
UO-31 renal = tested on: UO-31 renal
SF-268 CNS = tested on: SF-268 CNS
SW-620 colon = tested on: SW-620 colon
SK-MEL-2 melanoma = tested on: SK-MEL-2 melanoma
HCC-2998 colon = tested on: HCC-2998 colon
SK-OV-3 ovarian = tested on: SK-OV-3 ovarian
ACHN renal = tested on: ACHN renal
SF-295 CNS = tested on: SF-295 CNS
CAKI-1 renal = tested on: CAKI-1 renal
IGROV1 ovarian = tested on: IGROV1 ovarian
BT-549 breast = tested on: BT-549 breast
M14 melanoma = tested on: M14 melanoma
SK-MEL-5 melanoma = tested on: SK-MEL-5 melanoma
SN12C renal = tested on: SN12C renal
RXF 393 renal = tested on: RXF 393 renal
MDA-MB-435 = tested on: MDA-MB-435
A549 NSCLC = tested on: A549 NSCLC
UACC-257 melanoma = tested on: UACC-257 melanoma
HL-60(TB) leukemia = tested on: HL-60(TB) leukemia
HOP-92 NSCLC = tested on: HOP-92 NSCLC
TK-10 renal = tested on: TK-10 renal
T-47D breast = tested on: T-47D breast

CCc1cc2c(c(OCC(F)(F)F)c(C(=O)NC3CCN(C(=O)CO)CC3)n2C)c(=O)n1CC(=O)c1ccccc1
GI50 (HS 578T breast): 34.4 µM
TGI (HS 578T breast): > 100 µM
GI50 (KM12 colon): 58.5 µM
TGI (KM12 colon): > 100 µM
GI50 (NCI-H226 lung): 97 µM
TGI (NCI-H226 lung): > 100 µM
GI50 (NCI-H23 lung): 99.7 µM
TGI (NCI-H23 lung): > 100 µM
GI50 (DU-145 prostate): > 100 µM
TGI (DU-145 prostate): > 100 µM
GI50 (SNB-19 CNS): > 100 µM
TGI (SNB-19 CNS): > 100 µM
GI50 (MCF7 breast): 44 µM
TGI (MCF7 breast): > 100 µM
GI50 (RPMI-8226 leukemia): 27.7 µM
TGI (RPMI-8226 leukemia): > 100 µM
GI50 (HCT-15 colon): 52.3 µM
TGI (HCT-15 colon): > 100 µM
GI50 (HOP-62 NSCLC): > 80.9 µM
TGI (HOP-62 NSCLC): > 100 µM
GI50 (OVCAR-4 ovarian): > 72.2 µM
TGI (OVCAR-4 ovarian): > 100 µM
GI50 (SF-539 CNS): 36.5 µM
TGI (SF-539 CNS): > 100 µM
GI50 (SNB-75 CNS): > 33.9 µM
TGI (SNB-75 CNS): > 100 µM
GI50 (OVCAR-8 ovarian): 45.5 µM
TGI (OVCAR-8 ovarian): > 100 µM
GI50 (MDA-MB-231 breast): 54.6 µM
TGI (MDA-MB-231 breast): > 100 µM
GI50 (786-0 renal): 33.4 µM
TGI (786-0 renal): > 100 µM
GI50 (NCI/ADR-RES ovarian): > 68.4 µM
TGI (NCI/ADR-RES ovarian): > 100 µM
GI50 (NCI-H460 lung): > 57.8 µM
TGI (NCI-H460 lung): > 100 µM
GI50 (MALME-3M melanoma): > 100 µM
TGI (MALME-3M melanoma): > 100 µM
GI50 (SK-MEL-28 melanoma): 70.4 µM
TGI (SK-MEL-28 melanoma): > 100 µM
GI50 (PC-3 prostate): > 73.5 µM
TGI (PC-3 prostate): > 100 µM
GI50 (HT29 colon): 65 µM
TGI (HT29 colon): > 100 µM
GI50 (COLO 205 colon): > 100 µM
TGI (COLO 205 colon): > 100 µM
GI50 (OVCAR-3 ovarian): > 100 µM
TGI (OVCAR-3 ovarian): > 100 µM
GI50 (NCI-H522 lung): > 95.9 µM
TGI (NCI-H522 lung): > 100 µM
GI50 (LOX IMVI melanoma): > 80 µM
TGI (LOX IMVI melanoma): > 100 µM
GI50 (SR leukemia): 50.7 µM
TGI (SR leukemia): > 100 µM
GI50 (A498 renal): 99.3 µM
TGI (A498 renal): > 100 µM
GI50 (EKVX NSCLC): > 100 µM
TGI (EKVX NSCLC): > 100 µM
GI50 (K-562 leukemia): 34.4 µM
TGI (K-562 leukemia): > 100 µM
GI50 (UACC-62 melanoma): 57.8 µM
TGI (UACC-62 melanoma): > 100 µM
GI50 (U251 CNS): > 82.9 µM
TGI (U251 CNS): > 100 µM
GI50 (OVCAR-5 ovarian): > 100 µM
TGI (OVCAR-5 ovarian): > 100 µM
GI50 (CCRF-CEM leukemia): 38.5 µM
TGI (CCRF-CEM leukemia): > 100 µM
GI50 (HCT-116 colon): 63.5 µM
TGI (HCT-116 colon): > 100 µM
GI50 (MOLT-4 leukemia): 37.2 µM
TGI (MOLT-4 leukemia): > 100 µM
GI50 (UO-31 renal): 45.3 µM
TGI (UO-31 renal): > 100 µM
GI50 (SF-268 CNS): > 90.3 µM
TGI (SF-268 CNS): > 100 µM
GI50 (SW-620 colon): > 59.4 µM
TGI (SW-620 colon): > 100 µM
GI50 (SK-MEL-2 melanoma): 56.1 µM
TGI (SK-MEL-2 melanoma): > 100 µM
GI50 (HCC-2998 colon): > 78 µM
TGI (HCC-2998 colon): > 100 µM
GI50 (SK-OV-3 ovarian): > 100 µM
TGI (SK-OV-3 ovarian): > 100 µM
GI50 (ACHN renal): > 64.5 µM
TGI (ACHN renal): > 100 µM
GI50 (SF-295 CNS): 34.7 µM
TGI (SF-295 CNS): > 100 µM
GI50 (CAKI-1 renal): > 60.3 µM
TGI (CAKI-1 renal): > 100 µM
GI50 (IGROV1 ovarian): > 80.5 µM
TGI (IGROV1 ovarian): > 100 µM
GI50 (BT-549 breast): 51.3 µM
TGI (BT-549 breast): > 100 µM
GI50 (M14 melanoma): > 100 µM
TGI (M14 melanoma): > 100 µM
GI50 (SK-MEL-5 melanoma): 80.2 µM
TGI (SK-MEL-5 melanoma): > 100 µM
GI50 (SN12C renal): > 100 µM
TGI (SN12C renal): > 100 µM
GI50 (RXF 393 renal): 11.2 µM
TGI (RXF 393 renal): 42.7 µM
GI50 (MDA-MB-435): > 100 µM
TGI (MDA-MB-435): > 100 µM
GI50 (A549 NSCLC): 92.2 µM
TGI (A549 NSCLC): > 100 µM
GI50 (UACC-257 melanoma): > 82.2 µM
TGI (UACC-257 melanoma): > 100 µM
GI50 (HL-60(TB) leukemia): 59.3 µM
TGI (HL-60(TB) leukemia): > 100 µM
GI50 (HOP-92 NSCLC): > 62.4 µM
TGI (HOP-92 NSCLC): > 100 µM
GI50 (TK-10 renal): > 100 µM
TGI (TK-10 renal): > 100 µM
GI50 (T-47D breast): > 65.9 µM
TGI (T-47D breast): > 100 µM
